# US20190008919A1, “ETA RECEPTOR ANTAGONISTS AND METHODS OF USING THE SAME TO TREAT CARDIOVASCULAR DISORDERS AND DISEASE” (priority 2017, published 2019)
# Non-standard residues stand in square brackets, D forms with d. Residues, ends and D or L forms follow the SMILES beside them.
# Columns and labels:
# [1] = tested on: peripheral small arteries; assay: Elastin and collagen contents by multiphoton microscopy; assay type: in vivo, Wistar rats
# Description: (§1) Rats in group 2 received continuous BQ-123 infusion (1 mg/kg/day) for 21 days through Osmotic minipump implantation after 12 weeks of aortic NCR. BQ-123 (Peptides International Inc., Louisville, Ky.) was dissolved in saline containing 0.5% dimethyl sulphoxide (DMSO). The Osmotic minipump (model 2002, Durect Corporation, CA) was subcutaneously implanted on the side of abdomen in rats. Sham rats received continuous saline infusion through Osmotic minipumps for 21 days.
# The elastin and collagen in small peripheral arteries were imaged by using a Multiphoton microscope (MPM) as described by Huan et al. Briefly, the arterial segment was fixed with 4% paraformaldehyde in phosphate buffer for 4 hours. The vessel was then transferred to a cryomold containing OCT embedding medium, and frozen in liquid nitrogen. Frozen transverse sections (7 μm) were cut onto glass slide and visualized by the MPM with a combined SHG/TPEF setup (Zeiss LSM 710 NLO). Serial optical sections were simultaneously captured by using the 520 nm line for elastin and the 415 nm line for collagen. All the images were taken under identical conditions of laser intensity, brightness, and contrast. Fluorescence intensity values were used as estimates of elastin and collagen concentration and quantitatively analyzed by Image J.
# [2] = tested on: peripheral small arteries; assay: Endothelial function of peripheral small arteries (isovolumic myograph, ex vivo) after in vivo treatment; design: species or system Wistar rats
# Description: as §1
# (§2) After measurement of pressure and flow from a branch of femoral artery, water-resistant carbon particles were used to mark the same vessel segment (400˜500 μm in diameter) to measure axial changes as described in a publication by Guo et al. The external geometry of the arterial segment was photographed to obtain the outer diameter and in vivo axial length with the aid of a dissecting microscope. The arterial segment was than harvested for endothelial function and mechanical testing and histological analysis. The heart was harvested to calculate the wet weight.
# An isovolumic myograph recently developed by our group was used to evaluate the endothelium-dependent vasorelaxation. The small peripheral arterial segment was cannulated on both ends in a physiological bath with HEPES physiologic saline solution (HEPES-PSS, concentration in mmol/l: 142 NaCl, 4.7 KCl, 2.7 sodium HEPES, 3 HEPES acid, 0.15 NaHPO4, 1.17 MgSO4, 2.79 CaCl^2, and 5.5 glucose, solution gassed by 95% O2 plus 5% CO2) and stretched to in situ length. The pressure and external diameter were measured with a pressure transducer (Mikro-Tip SPR-524; Millar Instruments) and a digital diameter tracking (DiamTrak v3+; Australia), respectively. The vessel segment was pre-constricted with phenylephrine (PE) by a series of doses (10^−10 to 10^−5 mol/L in the PSS), and then relaxed with acetylcholine (ACh) by a series of doses: 10^−10 to 10^−5 mol/L. The endothelium-independent relaxation to sodium nitroprusside (SNP, 10^−5 mol/L) was measured to verify the sensitivity of vascular smooth muscle to NO. The overall contractility of vessel was tested with potassium chloride (KCl) at 60 mmol/L. Contraction was expressed as percentage of the response to KCl. Relaxation was expressed as percentage of pre-contraction to PE.
# Results were shown as mean±standard error of mean (mean±SEM). The significance of the differences between two groups was evaluated by either t-test or One-way ANOVA. For each dose-response curve to agents, the maximum effect (Emax) and bolus dose that produced half-maximal relaxation or contraction (expressed as pED50) were obtained by fitting the experimental data with a sigmoidal dose response curve. A least-squares fitting function, FindFit (Wolfram Mathematica software, Illinois, USA) was used. Significant differences among the three groups for dose-dependent curves (FIGS. 10B and 7A) were determined by Two-way ANOVA (SigmaStat, California, USA). The results were considered statistically significant when P<0.05 (2-tailed).
# [3] = tested on: peripheral small arteries; assay: Mechanical tests and morphometry of peripheral small arteries; assay type: in vivo, Wistar rats
# Description: as §1, §2
# The peripheral arterial segment was cannulated on both ends and fully relaxed in Ca^2+ free HEPES-PSS. The arterial segment was preconditioned with five cyclic changes in pressure from 0 to 140 mmHg. The pressure was then increased in 20 mmHg step increments from 20 to 140 mmHg in a staircase manner. The passive pressure-diameter relation was recorded. After the mechanical testing, the vessel segment was cut transversely into three or four rings. Each ring was photographed in the no-load state and then cut radially by a scissor to reveal the zero-stress state. The cross section of each sector was photographed 30 minutes after the radial cut (details in Guo et al.). The morphological measurements of the in vitro axial length, inner and outer circumference, wall thickness (WT), and area in the no-load and zero-stress state were made from the images using a morphometric analysis system (SigmaScan).
# The loaded inner radius of vessel was determined from the incompressibility assumption. The incompressibility condition for a cylindrical vessel can be expressed as:
# where ro and ri are the outer and inner radii at the loaded state, respectively. λZ=l/lo is the stretch ratio in the axial direction where l and lo are the vessel length in the loaded and no-load state, respectively and Ao is the wall area in the no-load state. The wall thickness, WT at the loaded state was computed as the difference between the outer and inner radius of the vessel at various pressures as:
# The volume compliance (CV) of the artery was determined by the slope of the pressure-volume relationship; i.e., CV=ΔV/ΔP. […] The normalized CSA compliance (CCSA) was determined similarly as CCSA=ΔCSA/(ΔP·CSA) at the physiological pressure as described in our previous publication.
# left ventricle = assay: Heart and left ventricle weights; assay type: in vivo, Wistar rats; conditions: compared to sham
# Description: as §1, §2
# Body weight = assay type: in vivo, Wistar rats; conditions: Exp rats, 12 weeks aortic NCR then BQ-123 1 mg/kg/day continuous infusion 3 weeks; mean ± SEM
# Description: (§3) Twenty seven Wistar rats at age of 17-18 weeks were randomly divided into three groups. Group 1 (n=10) underwent aortic NCR for 12 weeks and was terminated at the end of 12 weeks. Group 2 (n=9) underwent aortic NCR for 12 weeks, then received continuous BQ-123 infusion for 3 weeks. The animals were terminated at the end of 15 weeks. Group 3 (n=8) was used as the sham-operated control for groups 1 and 2. All animal experiments were performed in accordance with national and local ethical guidelines, including the Institute of Laboratory Animal Research guidelines, Public Health Service policy, the Animal Welfare Act, as approved by Institutional Animal Care and Use Committee at California Medical Innovations Institute, San Diego.
# as §1
# [4] = tested on: aortic stiffening-induced hypertension rat model; assay: Pressure, pulse wave velocity and peripheral flow measurement in aortic NCR (aortic stiffening-induced hypertension) rats; assay type: in vivo, Wistar rats
# Description: as §3
# Animals were anesthetized with 1-2% isoflurane by air inhalation. A pressure catheter (Mikro-tip SPR-407, Millar Instruments, Houston, Tex.,) was inserted in the aortic arch (proximal site) via the right carotid artery. Heparin (200 U/ml) was used to prevent blood clots in the vessels. Another pressure transducer (Mikro-tip SPR-671) was advanced retrogradely into the abdominal aorta (distal site) via the right femoral artery. The central and peripheral aortic blood pressure waveforms were recorded from these two locations simultaneously during the procedure. A branch (400˜500 μm in diameter) of the left femoral artery was exposed carefully. A flow probe (0.5 mm ID) connected to a flow meter (Transonic systems, Ithaca, N.Y.) was then placed around it and local flow rate was recorded for at least 30 minutes. Following the measurement of blood pressure, the small cuts for cannulation on the carotid and femoral arteries were repaired by 11-0 sutures to restore flow.
# A laparotomy (about 3.0 cm) was performed. The distal abdominal aorta between renal and common iliac artery was carefully exposed and tissue glue (cyanoacrylate formulation, Dermabond, Ethicon, NJ) was coated over a length of the aorta. After allowing 5-10 minutes for the glue to harden, a stiff coating formed and covered the anterior and bilateral sides of the aorta with an axial length of 3.0-3.5 cm. The sham group underwent an identical surgical procedure, but without application of glue on the aorta (i.e., the same amount of glue was left near the aorta area with no direct contact with the aorta).
# as §1
# Pulse wave velocity (PWV) calculation is based on the difference in arrival times of the pressure wave at the proximal (aorta arch) and distal (abdominal aorta) locations. Since the pressure transducer is visible on radiographs, the propagation distance between the proximal and distal site was obtained by imaging the animal with the two transducers implantation under an X-ray machine (Philips Fluoroscopy System, FIG. 1). PWV (m/s) was calculated by dividing the propagation distance by the difference among the two arrival times (transit time).
# The reverse to forward flow ratio (indicative of the extent of peripheral flow reversal) in peripheral small artery was calculated as: R/F ratio=Qrev/Qfwd×100(%), where Qrev and Qfwd are the reverse and forward peak flow rate, respectively (as shown in FIG. 3A). […]
# ET-1 = assay: Serum ET-1 level (ELISA); assay type: in vivo, Wistar rats; conditions: FIG. 6; not significantly different from the sham
# Description: as §1
# Blood samples were collected in ethylenediaminetetraacetic acid (EDTA) tubes for all experimental rats. After centrifugation at 5000 rpm and 4° C. for 15 min, serum was immediately separated and stored at −80° C. until analysis. The circulating level of ET-1 in serum was measured by ELISA kit (R&D system, MN).
# [5] = Exp rats, 12 weeks aortic NCR then BQ-123 1 mg/kg/day infusion 3 weeks, mean ± SEM
# [6] = branch of femoral artery, Exp rats, 12 weeks aortic NCR then BQ-123 infusion 3 weeks, mean ± SEM
smiles,measurement,setting,value
"CC(C)C[C@@H]1NC(=O)[C@@H](C(C)C)NC(=O)[C@@H]2CCCN2C(=O)[C@@H](CC(=O)O)NC(=O)[C@@H](Cc2c[nH]c3ccccc23)NC1=O [BQ-123, 2-[(3R,6R,9S,12R,15S)-6-(1H-indol-3-ylmethyl)-9-(2-methylpropyl)-2,5,8,11,14-pentaoxo-12-propan-2-yl-1,4,7,10,13-pentazabicyclo[13.3.0]octadecan-3-yl]acetic acid] (cyclo(L[dW][dD]P[dV]))",total collagen content of peripheral arteries,"[1]; FIG. 5B, after 3 weeks BQ-123",returned to normal levels
same,elastin to collagen ratio,"[1]; FIG. 5C, after 3 weeks of treatment",restored to normal levels
same,total elastin contents,"[1]; between NCR, BQ-123 treatment and sham groups",No difference
same,endothelium-dependent vasodilation in response to acetylcholine (dose-response curve),"[2]; FIG. 7A, vs aortic NCR group, p<0.05, 2-way ANOVA",totally recovered
same,contractions to phenylephrine (PE),"[2]; FIG. 10B, vs sham and aortic NCR",did not affect this response
same,vascular contraction to potassium chloride (KCl),"[2]; KCl 60 mmol/L, among the 3 groups, FIG. 10C",no significant difference
same,maximal endothelium-independent relaxation to sodium nitroprusside (SNP),"[2]; SNP 10^−5 mol/L, arteries of BQ-123 treated NCR rats (sham 96%, NCR 74%)",98%
same,Emax,"[2]; acetylcholine concentration-response curve, PE pre-contracted peripheral small arteries of BQ-123 treated NCR rats, mean ± SEM",88.5 ± 7.9%
same,Phenylephrine Emax (%),"[2]; phenylephrine concentration-response curve, peripheral small arteries of BQ-123 treated NCR rats, mean ± SEM",72.4 ± 6.3 negative log mol/L
same,"wall thickness (WT, intima-media thickness)","[3]; compared to NCR group, not statistically significant, FIG. 4A",downward trend
same,wall thickness-to-radius (WTTR) ratio,"[3]; compared to NCR group, not statistically significant, FIG. 4B",downward trend
same,normalized CSA compliance,"[3]; compared with NCR group p=0.02, not fully restored vs sham (p=0.06), FIG. 4C",significantly increased
same,outer diameter of the peripheral small arteries,"[3]; sham, NCR and BQ-123 groups, FIG. 10A",no changes
same,wet weights of the hearts,left ventricle,did not change
same,LV weight/heart weight ratio (LV/HW),"left ventricle; p<0.05, FIG. 2",significant increase
same,Body Weight,Body weight,641.3 ± 18.9 g
same,"Central aortic blood pressure, Diastolic pressure",[4]; [5],94.8 ± 3.2 mmHg
same,"Central aortic blood pressure, Mean pressure",[4]; [5],115.0 ± 3.8 mmHg
same,"Central aortic blood pressure, Pulse pressure",[4]; [5],38.5 ± 1.8 mmHg
same,"Central aortic blood pressure, Systolic pressure",[4]; [5],133.3 ± 3.9 mmHg
same,Heart rate,[4]; [5],353.0 ± 6.9 beats/min
same,PWV,[4]; [5],4.1 ± 0.3 m/s
same,"Peripheral aortic blood pressure, Diastolic pressure",[4]; [5],87.6 ± 3.5 mmHg
same,"Peripheral aortic blood pressure, Mean pressure",[4]; [5],108.0 ± 4.5 mmHg
same,"Peripheral aortic blood pressure, Pulse pressure",[4]; [5],45.8 ± 2.1 mmHg
same,"Peripheral aortic blood pressure, Systolic pressure",[4]; [5],133.4 ± 5.1 mmHg
same,wall shear stress (WSS) in peripheral small arteries,"[4]; FIG. 3B, after 3 weeks BQ-123 in NCR rats",returned to the sham level
same,Reverse/forward flow ratio,"[4]; Qrev/Qfwd×100, Exp rats, 12 weeks aortic NCR then BQ-123 infusion 3 weeks, mean ± SEM",7.6 ± 1.4 %
same,"Peripheral flow rate, Forward flow",[4]; [6],0.34 ± 0.04 mL/min
same,"Peripheral flow rate, Mean flow",[4]; [6],0.099 ± 0.008 mL/min
same,"Peripheral flow rate, Reverse flow",[4]; [6],-0.026 ± 0.007 mL/min
same,serum ET-1 level,ET-1,restored to pre-intervention level
